This is an account of results in PubChem BioAssay AID330 (DTP/NCI, 2004).

The assay deals with P388 leukemia ip, CD2F1 mice, survival T/C. The assay is described as follows: NCI In Vivo Anticancer Drug Screen. Data for tumor model P388 Leukemia (intraperitoneal) in CD2F1 (CDF1) mice. The note with it: endpoint: median survival time, higher = longer survival. The method in brief:
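Mice carrying the transplanted tumor received test compound or vehicle. Survival was recorded in each group, and the value is the treated-group measurement divided by that of the vehicle-treated control group.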

The mark [1] stands for this setting: dose: 50.0 mg/kg/injection, schedule: Q01DX009 (ip), vehicle: saline.
[2] abbreviates: dose: 100.0 mg/kg/injection, schedule: Q01DX009 (ip), vehicle: saline.
The mark [3] stands for this setting: dose: 200.0 mg/kg/injection, schedule: Q01DX009 (ip), vehicle: saline.
[4] abbreviates: dose: 60.0 mg/kg/injection, schedule: Q01DX005 (ip), vehicle: saline with Tween-80.
Where [5] appears, read: dose: 120.0 mg/kg/injection, schedule: Q01DX005 (ip), vehicle: saline with Tween-80.
Where [6] appears, read: dose: 50.0 mg/kg/injection, schedule: Q01DX005 (ip), vehicle: saline with Tween-80.
Where [7] appears, read: dose: 100.0 mg/kg/injection, schedule: Q01DX005 (ip), vehicle: saline with Tween-80.
The mark [8] stands for this setting: dose: 200.0 mg/kg/injection, schedule: Q01DX005 (ip), vehicle: saline with Tween-80.

The structures appear in SMILES notation. Values joined by “and” are separate entries in the source; they are usually repeats but may differ in a detail not shown here. Identical values can stand only once. Inconclusive results and toxic doses are left out.

For `O=P1(NCCCl)OCCCN1CCCl` (stereo not drawn), the T/C by setting is: (dose: 25.0 mg/kg/injection, schedule: Q01DX009 (ip), vehicle: saline) 184 % of control; (dose: 30.0 mg/kg/injection, schedule: Q01DX005 (iv), vehicle: saline) 157 % of control; under setting [1], 270 % of control; (dose: 60.0 mg/kg/injection, schedule: Q01DX005 (ip), vehicle: saline) 195 % of control; (dose: 60.0 mg/kg/injection, schedule: Q01DX005 (iv), vehicle: saline) 186 % of control; under setting [2], 282 % of control. The T/C reads like this: (dose: 120.0 mg/kg/injection, schedule: Q01DX005 (ip), vehicle: saline) 280 % of control; (dose: 120.0 mg/kg/injection, schedule: Q01DX005 (iv), vehicle: saline) 241 % of control; under setting [3], 111 % of control; (dose: 240.0 mg/kg/injection, schedule: Q01DX005 (ip), vehicle: saline) 280 % of control; (dose: 240.0 mg/kg/injection, schedule: Q01DX005 (iv), vehicle: saline) 252 % of control; (dose: 289.0 mg/kg/injection, schedule: Q01DX001 (ip), vehicle: saline) 233 % of control. Also, the T/C by setting is: (dose: 431.0 mg/kg/injection, schedule: Q01DX001 (ip), vehicle: saline) 582 % of control; (dose: 538.0 mg/kg/injection, schedule: Q01DX001 (ip), vehicle: saline) 582 % of control; (dose: 646.0 mg/kg/injection, schedule: Q01DX001 (ip), vehicle: saline) 242 % of control.

With `O=C1CC(=O)N2C(=O)CC(=O)N12`, the T/C is 99 % of control under setting [4]; 103 % of control under setting [5]; 97 % of control (dose: 240.0 mg/kg/injection, schedule: Q01DX005 (ip), vehicle: saline with Tween-80).

Regarding `c1ccc(Cn2ccnc2CSCCSCc2nccn2Cc2ccccc2)cc1`, the T/C is, setting by setting: (dose: 30.0 mg/kg/injection, schedule: Q01DX005 (ip), vehicle: Klucel (hydroxypropylcellulose) (HPC)) 101 % of control; (dose: 60.0 mg/kg/injection, schedule: Q01DX005 (ip), vehicle: Klucel (hydroxypropylcellulose) (HPC)) 99 % of control and 90 % of control; (dose: 120.0 mg/kg/injection, schedule: Q01DX005 (ip), vehicle: Klucel (hydroxypropylcellulose) (HPC)) 99 % of control and 105 % of control; (dose: 240.0 mg/kg/injection, schedule: Q01DX005 (ip), vehicle: Klucel (hydroxypropylcellulose) (HPC)) 97 % of control.

Consider `CCOc1c(N=Nc2ccc(OC)cc2)c(-c2ccccc2)nn1C(=S)S`, for which the T/C is, setting by setting: under setting [6], 102 % of control; under setting [7], 103 % of control; under setting [8], 102 % of control.

In the case of `O=c1c2ccccc2nc(/C=N/NC(=S)Nc2ccc(Cl)cc2)n1-c1ccc(Br)cc1`, the T/C was 96 % of control (dose: 100.0 mg/kg/injection, schedule: Q04DX002 (ip), vehicle: saline with Tween-80) and 88 % of control (dose: 200.0 mg/kg/injection, schedule: Q04DX002 (ip), vehicle: saline with Tween-80).

Consider `CC(=O)[C@]1(O)Cc2c(O)c3c(c(O)c2[C@@H](OC2CC(NC(=O)C(F)(F)F)C(O)C(C)O2)C1)C(=O)c1c(O)cccc1C3=O` (stereo partly drawn), for which the T/C is 96 % of control (dose: 12.5 mg/kg/injection, schedule: Q04DX003 (ip), vehicle: water); 118 % of control (dose: 25.0 mg/kg/injection, schedule: Q04DX003 (ip), vehicle: water); 118 % of control (dose: 100.0 mg/kg/injection, schedule: Q04DX003 (ip), vehicle: water); 214 % of control (dose: 200.0 mg/kg/injection, schedule: Q04DX003 (ip), vehicle: water).

In the case of `COc1cc(C2=NCCc3cc4c(cc32)OCO4)cc(OC)c1OC`, the T/C was 100 % of control and 101 % of control (dose: 50.0 mg/kg/injection, schedule: Q01DX005 (ip), vehicle: saline); 105 % of control and 118 % of control (dose: 100.0 mg/kg/injection, schedule: Q01DX005 (ip), vehicle: saline); 152 % of control (dose: 200.0 mg/kg/injection, schedule: Q01DX005 (ip), vehicle: saline).

In the case of `COc1ccc(CCNC(=O)c2ccc(OC)c(OCc3ccccc3)c2)cc1OC`, the T/C is, setting by setting: (dose: 25.0 mg/kg/injection, schedule: Q01DX009 (ip), vehicle: other) 97 % of control; (dose: 50.0 mg/kg/injection, schedule: Q01DX009 (ip), vehicle: other) 95 % of control; (dose: 100.0 mg/kg/injection, schedule: Q01DX009 (ip), vehicle: other) 89 % of control; (dose: 200.0 mg/kg/injection, schedule: Q01DX009 (ip), vehicle: other) 89 % of control; (dose: 400.0 mg/kg/injection, schedule: Q01DX009 (ip), vehicle: other) 90 % of control.

On to `COc1cc(-c2ccc(N=Nc3cc(S(=O)(=O)O)c4ccccc4c3O)c(OC)c2)ccc1N=Nc1cc(S(=O)(=O)O)c2ccccc2c1O`, for which the T/C was 99 % of control under setting [2]; 104 % of control under setting [3]; 115 % of control (dose: 400.0 mg/kg/injection, schedule: Q01DX009 (ip), vehicle: saline).

Consider `CC(=O)OC1CC2C(=S)Nc3cc4c(cc3C(=O)N2C1)OCO4` (stereo not drawn), for which the T/C under setting [6] is 92 % of control, the T/C under setting [7] is 91 % of control and the T/C under setting [8] was 89 % of control.

In the case of `O=NNc1ccc2ccccc2n1`, the T/C reads like this: (dose: 3.12 mg/kg/injection, schedule: Q01DX009 (ip), vehicle: water) 122 % of control; (dose: 25.0 mg/kg/injection, schedule: Q01DX009 (ip), vehicle: water) 91 % of control and 94 % of control.

Consider `Oc1cc(O)c2c(c1)OC(c1ccc(O)c(O)c1)C(O)C2O` (stereo not drawn), for which the T/C is 98 % of control (dose: 50.0 mg/kg/injection, schedule: Q01DX005 (ip), vehicle: saline + Tween-80 + alcohol); 98 % of control (dose: 100.0 mg/kg/injection, schedule: Q01DX005 (ip), vehicle: saline + Tween-80 + alcohol); 92 % of control (dose: 200.0 mg/kg/injection, schedule: Q01DX005 (ip), vehicle: saline + Tween-80 + alcohol).

As for `Cc1c(-c2ccccc2)oc(=O)c(Cl)c1N(c1ccccc1)c1ccccc1`, the T/C by setting is: under setting [6], 93 % of control; under setting [7], 98 % of control; under setting [8], 90 % of control.

In the case of `CCCCCCCCCC[N+]1(CC)CCCCCC1`, the T/C reads like this: (dose: 3.12 mg/kg/injection, schedule: Q01DX009 (ip), vehicle: saline) 90 % of control; (dose: 6.25 mg/kg/injection, schedule: Q01DX009 (ip), vehicle: saline) 98 % of control.

`CCC(=N\N=C(N)N)/C(CC)=N/N=C(N)N`: the T/C by setting is: under setting [4], 101 % of control; under setting [5], 97 % of control.

Turning to `CC(C=NC1CCCCC1)c1ccccc1` (stereo not drawn), the T/C is, setting by setting: under setting [1], 96 % of control; under setting [2], 87 % of control; under setting [3], 102 % of control.

Take `O=C1CCC(C(=O)O)N1` (stereo not drawn): the T/C is, setting by setting: (dose: 100.0 mg/kg/injection, schedule: Q04DX003 (ip), vehicle: saline) 95 % of control; (dose: 200.0 mg/kg/injection, schedule: Q04DX003 (ip), vehicle: saline) 97 % of control; (dose: 400.0 mg/kg/injection, schedule: Q04DX003 (ip), vehicle: saline) 94 % of control.
